Tests used:
[1] = test system: ADP-induced aggregation in rabbit platelets; assay: Inhibition of ADP-induced platelet aggregation in rabbit platelet rich plasma; assay type: cell-based; details: Oryctolagus cuniculus, read-out: Inhibition rate of ADP-induced aggregation; for inhibition at 100 µM (stock): Concentration of the test compound solution 10^-4 mole; for inhibition at 10 µM (stock): Concentration of the test compound solution 10^-5 mole
Protocol: (§1) The platelet aggregation inhibitory effect was measured by using a Platelet Aggregation Tracer Model PAT-6M (manufactured by Nikoh Bio-Science Co., Ltd.) by a method according to Kimura, et al., [IGAKU-NO-AYUMI (Progress in Medicine), Vol. 114, No. 9, pp. 718-727, Aug. 30, 1980, and Nature, pp. 927-929, 1962].
(§2) The blood sample used for the test was a 1:9 (by volume) mixture of "3.8%-CITRATE"® (a registered trademark for 3.8%-sodium citrate, manufactured by Green Cross Corp.) and whole blood collected from rabbits. Said sample was subjected to 10-minute centrifugal separation at 1,000 r.p.m. (200xG) to obtain a platelet rich plasma (PRP). The PRP thus obtained was separated, and the remaining blood sample was further subjected to 15-minute centrifugal separation at 3,000 r.p.m. (2,000xG) to obtain a platelet poor plasma (PPP).
(§3) The number of platelets in the PRP was counted by the Brecher-Clonkite Method, and the PRP was diluted with the PPP to prepare a PRP sample with a platelet concentration of 600,000/microliter to prepare for an adenosine diphosphate (ADP)-induced aggregation test, and a collagen-induced aggregation test. 0.2 Milliliter of the PRP sample was added to 2 microliters of a solution of a test compound of predetermined concentration and this mixture was placed in a 37° C. thermostat for one minute. Then 20 microliters of an ADP or collagen solution was added to the mixture. In this test, the ADP solution was prepared by adjustment to a concentration of 7.5×10^-5 M by using Auren-Beronal buffer solution (pH 7.35). Further, the collagen solution was prepared by adjustment to a concentration of 200 micrograms/ml by using collagen reagent of "Holm"® (manufactured by Hormon-Chemie Munchen, GmbH.) which was diluted wih a physiological saline solution.
(§4) The transmittance of the resultant test mixture was determined and the change of transmittance was recorded by using the aggregometer at a stirrer speed of 1,100 r.p.m.
(§5) The platelet aggregation inhibitory effect of the test compound was measured in terms of inhibition rate (%) with respect to the aggregation rate of the controls. The aggregation rate was calculated from the following formula.
(§6) Aggregation rate=[(c-a)/(b-a)]×100
(§7) The percent inhibition is calculated from the following formula.
(§8) Inhibition rate (%)=[(A-B)/A]×100
(§9) The inhibitory effect of the test compounds on collagen-induced aggregation in rabbit platelets is shown in Table 1, similarly such effect on ADP-induced aggregation in rabbit platelets is shown in Table 2.

coronary artery = assay: Increased amount of the blood flow in coronary artery, intravenous administration, anesthetized dog; assay type: in vivo
Protocol: (§10) The change of blood flow in coronary artery and the change of blood pressure were measured by a method according to Yakura et al., [Japan Journal of Pharmacology, Vol. 57, pages 380-391 (1961)] and according to Taira, et al. [Clin. Exp. Pharmacol. Physiol., Vol. 6, pages 301-316, (1976)].
(§11) An adult bastard dog of either sex weighing 8-13 kg was anesthetized with sodium pentobarbital at the rate of 30 mg/kg by intraveneous administration, then the dog was fixed in supination and was theracotomized under a condition of forced breathing. After another intraveneous administration of sodium heparin at the rate of 500 U/kg, 100 U/kg per hour, the dog was subjected to the following experiments.
(§12) (2) Intraveneous administration
(§13) Morawitz's cannula was cannulated to the coronary sinus venosus through the auricula dextra cordis, and the blood in vein was circulated to the right carotid. The blood flow was measured by an electromagnetic blood flow meter equipped with a blood flow observation probe in the extracorporeal circulation path of the vein. The systolic force was measured by a systolometer (pick-up) placed at the left ventricle of heart, the blood pressure was measured from the femoral artery, and the heart rate was measured from the pulse. A compound to be tested was administered through the cannula being cannulated in femoral vein. The increased amount of the blood flow in coronary artery after the administration of the test compound is shown in Table 4, also the change of blood pressure is shown in Table 5.

[2] = Change of blood pressure, intravenous administration, anesthetized dog; assay type: in vivo; parameters: unit not given here; details: femoral artery
Protocol: as §10, §11, §12, §13

[3] = test system: collagen-induced aggregation in rabbit platelets; assay: Inhibition of collagen-induced platelet aggregation in rabbit platelet rich plasma; assay type: cell-based; details: Oryctolagus cuniculus, read-out: Inhibition rate of collagen-induced aggregation; for inhibition at 100 µM (stock): Concentration of the test compound solution 10^-4 mole; for inhibition at 10 µM (stock): Concentration of the test compound solution 10^-5 mole
Protocol: as §1, §2, §3, §4, §5, §6, §7, §8, §9

Compound	inhibition at 100 µM (stock) [1] [%]	Change of blood pressure ([2]; 10 micrograms/kg)	Change of blood pressure ([2]; 30 micrograms/kg)	Change of blood pressure ([2]; 100 micrograms/kg)	Change of blood pressure ([2]; 300 micrograms/kg)	inhibition at 100 µM (stock) [3] [%]	other results
CCCOc1ccc(OCCCOC(=O)C2=C(C)NC(C)=C(C(=O)OC)C2c2cccc([N+](=O)[O-])c2)c2c1NC(=O)CC2 (centres unmarked) [Compound 11, 5-{3-[2,6-Dimethyl-5-methoxycarbonyl-4-(3-nitrophenyl)-1,4-dihydropyridin-3-carboxy]-propoxy}-8-propoxy-3,4-dihydrocarbostyril]	11	-18	-33	-41	-48		Increased amount of the blood flow in coronary artery (coronary artery; 3 micrograms/kg): 7 mL/min; Increased amount of the blood flow in coronary artery (coronary artery; 10 micrograms/kg): 26 mL/min; Increased amount of the blood flow in coronary artery (coronary artery; 30 micrograms/kg): 58 mL/min; Increased amount of the blood flow in coronary artery (coronary artery; 100 micrograms/kg): 56 mL/min; Increased amount of the blood flow in coronary artery (coronary artery; 300 micrograms/kg): 73 mL/min; Change of blood pressure ([2]; 3 micrograms/kg): -5
C#CCOc1ccc(OCCCOC(=O)C2=C(C)NC(C)=C(C(=O)OC)C2c2cccc([N+](=O)[O-])c2)c2c1NC(=O)CC2 (centres unmarked) [Compound 12, 5-{3-[2,6-Dimethyl-5-methoxycarbonyl-4-(3-nitrophenyl)-1,4-dihydropyridin-3-carboxy]-propoxy}-8-(2-propynyloxy)-3,4-dihydrocarbostyril]	14	-5	-23	-49			Increased amount of the blood flow in coronary artery (coronary artery; 3 micrograms/kg): 5 mL/min; Increased amount of the blood flow in coronary artery (coronary artery; 10 micrograms/kg): 30 mL/min; Increased amount of the blood flow in coronary artery (coronary artery; 30 micrograms/kg): 74 mL/min; Increased amount of the blood flow in coronary artery (coronary artery; 100 micrograms/kg): 63 mL/min
COC(=O)C1=C(C)NC(C)=C(C(=O)OCCOc2cccc3c2NC(=O)CC3)C1c1cccc([N+](=O)[O-])c1 (centres unmarked) [Compound 13, 8-{2-[2,6-Dimethyl-5-methoxycarbonyl-4-(3-nitrophenyl)-1,4-dihydropyridin-3-carboxy]-ethoxy}-3,4-dihydrocarbostyril]		-16	-32	-52			Change of blood pressure ([2]; 3 micrograms/kg): -7
COC(=O)C1=C(C)NC(C)=C(C(=O)OCCOc2ccc3c(c2)NC(=O)CC3)C1c1cccc([N+](=O)[O-])c1 (centres unmarked) [Compound 14, 7-{2-[2,6-Dimethyl-5-methoxycarbonyl-4-(3-nitrophenyl)-1,4,-dihydropyridin-3-carboxy]-ethoxy}-3,4-dihydrocarbostyril]			-2	-14	-32		
COC(=O)C1=C(C)NC(C)=C(C(=O)OCCCCOc2ccc3[nH]c(=O)ccc3c2)C1c1cccc([N+](=O)[O-])c1 (centres unmarked) [Compound 15, 6-{4-[2,6-Dimethyl-5-methoxycarbonyl-4-(3-nitrophenyl)-1,4-dihydropyridin-3-carboxy]-butoxy}carbostyril]	100		-3	-9	-27	100	inhibition at 10 µM (stock) [3]: 26%; inhibition at 10 µM (stock) [1]: 20%
COC(=O)C1=C(C)NC(C)=C(C(=O)OCCCCOc2ccc3c(c2)CCC(=O)N3)C1c1cccc([N+](=O)[O-])c1 (centres unmarked) [Compound 16, 6-{4-[2,6-Dimethyl-5-methoxycarbonyl-4-(3-nitrophenyl)-1,4-dihydropyridin-3-carboxy]-butoxy}-3,4-dihydrocarbostyril]		-12	-27		-54		Change of blood pressure ([2]; 3 micrograms/kg): -3
COC(=O)C1=C(C)NC(C)=C(C(=O)OCCCCOc2cccc3c2CCC(=O)N3)C1c1cccc([N+](=O)[O-])c1 (centres unmarked) [Compound 17, 5-{4-[2,6-Dimethyl-5-methoxycarbonyl-4-(3-nitrophenyl)-1,4-dihydropyridin-3-carboxy]-butoxy}-3,4-dihydrocarbostyril]		-4	-14	-55	-76		
COC(=O)C1=C(C)NC(C)=C(C(=O)OCCCCOc2cccc3[nH]c(=O)ccc23)C1c1cccc([N+](=O)[O-])c1 (centres unmarked) [Compound 18, 5-{4-[2,6-Dimethyl-5-methoxycarbonyl-4-(3-nitrophenyl)-1,4-dihydropyridin-3-carboxy]-butoxy}carbostyril]	48	-5	-19	-33	-43	100	inhibition at 10 µM (stock) [3]: 3%; inhibition at 10 µM (stock) [1]: 15%
COC(=O)C1=C(C)NC(C)=C(C(=O)OCC(COc2ccc3c(c2)CCC(=O)N3)OC(C)=O)C1c1cccc([N+](=O)[O-])c1 (centres unmarked) [Compound 23, 6-{3-[2,6-Dimethyl-5-methoxycarbonyl-4-(3-nitrophenyl)-1,4-dihydropyridin-3-carboxy]-2-acetoxypropoxy}-3,4-dihydrocarbostyril]	79					100	inhibition at 10 µM (stock) [3]: 29%; inhibition at 10 µM (stock) [1]: 29%
COC(=O)C1=C(C)NC(C)=C(C(=O)OCCCCOc2ccc3c(c2)CCC(=O)N3)C1c1ccccc1C(F)(F)F (centres unmarked) [Compound 25, 6-{4-[2,6-Dimethyl-5-methoxycarbonyl-4-(2-trifluoromethylphenyl)-1,4-dihydropyridin-3-carboxy]butoxy}-3,4-dihydrocarbostyril]		-34	-46				Change of blood pressure ([2]; 3 micrograms/kg): -9
COC(=O)C1=C(C)NC(C)=C(C(=O)OCC(O)COc2ccc3c(c2)CCC(=O)N3)C1c1cccc([N+](=O)[O-])c1 (centres unmarked) [Compound 39, 6-{3-[2,6-Dimethyl-5-methoxycarbonyl-4-(3-nitrophenyl)-1,4-dihydropyridin-3-carboxy]-2-hydroxypropoxy}-3,4-dihydro-carbostyril]	76					100	inhibition at 10 µM (stock) [3]: 19%
COC(=O)C1=C(C)NC(C)=C(C(=O)OCCCCOc2ccc3c(c2)CCC(=O)N3)C1c1ccc(OC)c(OC)c1 (centres unmarked) [Compound 40, 6-{4-[2,6-Dimethyl-5-methoxycarbonyl-4-(3,4-dimethoxyphenyl)-1,4-dihydropyridin-3-carboxy]butoxy}-3,4-dihydrocarbostyril]	14					15	
COC(=O)C1=C(C)NC(C)=C(C(=O)OCCCCOc2ccc3c(c2)CCC(=O)N3)C1c1cc(OC)c(OC)c(OC)c1 (centres unmarked) [Compound 41, 6-{4-[2,6-Dimethyl-5-methoxycarbonyl-4-(3,4,5-trimethoxyphenyl)-1,4-dihydropyridin-3-carboxy]butoxy}-3,4-dihydrocarbostyril]	30					35	
COC(=O)C1=C(C)NC(C)=C(C(=O)OCCCCOc2ccc3c(c2)CCC(=O)N3)C1c1ccc(Cl)cc1Cl (centres unmarked) [Compound 42, 6-{4-[2,6-Dimethyl-5-methoxycarbonyl-4-(2,4-dichlorophenyl)-1,4-dihydropyridin-3-carboxy]butoxy}-3,4-dihydrocarbostyril]	26					39	

Source: patent US4564619A, “Carbostyril derivative” (Otsuka Pharmaceutical Co., Ltd., priority 1982, dated 1986)
